Data set [1] deals with MCF7. Description: Cytotoxicity against human MCF7 cells assessed as viable cells at 10 uM by trypan blue staining based assay. It counts as functional. As to conditions: read-out: Activity.
Data set [2] can be described thus: Inhibition of P-gp in human MCF7/D70 cells assessed as decrease in doxorubicin IC50 at 50 uM after 72 hrs by MTT assay (Rvb doxorubicin alone IC50 = 0.906 +/- 0.02 uM). The data set is classed as cell-based. As to conditions: MCF7/D70, 72 h. Background: Tetrazolium assays rely on reduction of a dye to a coloured formazan, in cell work by metabolically active cells.

The test system of data set [3] is MCF7. Description: Cytotoxicity against human MCF7 cells assessed as viable cells at 50 uM by trypan blue staining based assay. The data set is classed as functional. As to conditions: read-out: Activity.
The nature of data set [4]: Inhibition of P-gp in human MCF7/D70 cells assessed as decrease in doxorubicin IC50 at 10 uM after 72 hrs by MTT assay (Rvb doxorubicin alone IC50 = 0.906 +/- 0.02 uM). It counts as cell-based. As to conditions: MCF7/D70, 72 h.
The nature of data set [5]: Cytotoxicity against human fibroblast cells assessed as viable cells at 50 uM by trypan blue staining based assay. As to conditions: read-out: Activity. The data set is classed as cell-based.
The nature of data set [6]: Cytotoxicity against human fibroblast cells assessed as viable cells at 10 uM by trypan blue staining based assay. It counts as cell-based. As to conditions: read-out: Activity.
A short description of data set [7]: Inhibition of P-gp in human MCF7/D70 cells assessed as decrease in doxorubicin IC50 at 1 uM after 72 hrs by MTT assay (Rvb doxorubicin alone IC50 = 0.906 +/- 0.02 uM). As to conditions: MCF7/D70, 72 h. It counts as cell-based.

The term IC50 denotes the concentration needed to halve the response being measured.

Consider `CC1CN(CC2COc3ccccc3O2)C(C)CN1CC1COc2ccccc2O1` (configuration not stated), for which the viability at 10 µM worked out at 80% in data set [1] and 100% in data set [6]. In addition, the IC50 in data set [2] is 580 nM; in data set [4], 1450 nM. Also, the viability at 50 µM amounted to 53% in data set [3] and 77% in data set [5].

Regarding `O=C1OCCN1N1C(=O)CC2(CCN(Cc3ccccc3)CC2)C1=O`, the viability at 10 µM in data set [1] was found to be 95%; in data set [6] it was 100%. Besides, the IC50 in data set [2] worked out at 510 nM. Moreover, the viability at 50 µM in data set [3] worked out at 89%; in data set [5] it was 100%.

In the case of `COc1cc2c(cc1OC)C1C(CO)c3ccc4c(c3CN1CC2)OCO4` (configuration not stated), the values for the viability at 10 µM in data set [1] and in data set [6] were 90% and 100%, respectively. The 50% inhibitory concentration (IC50) in data set [2] turned out to be 570 nM. Moreover, the figures for the viability at 50 µM in data set [3] and in data set [5] were 72% and 75%, respectively.

In the case of `CCCNCCC(O)c1cc(C(F)(F)F)nc2c(C(F)(F)F)cccc12` (configuration not stated), the viability at 10 µM worked out at 9% in data set [1] and 67% in data set [6]. The viability at 50 µM in data set [3] came out at 6%; in data set [5], 19%.

In the case of `CN1CN(c2ccccc2)C2(CCN(CCc3cc4ccccc4o3)CC2)C1=O`, the viability at 10 µM in data set [1] turned out to be 31%; in data set [6], 92%. Besides, the viability at 50 µM worked out at 14% in data set [3] and 21% in data set [5].

As to `N=c1[nH]c(=O)n(CCCCOc2ccccc2)cc1-c1ccc(Cl)c(Cl)c1`, the viability at 10 µM worked out at 77% in data set [1] and 100% in data set [6]. Also, the values for the IC50 in data set [2] and in data set [4] were 240 nM and 570 nM, respectively. Further, the viability at 50 µM in data set [3] was 58%; in data set [5] it was 56%.

Take `CCCC(=O)N(C)C1=Nc2ccc(Cl)cc2C(c2ccccc2)=[N+]([O-])C1`: the viability at 10 µM was found to be 95% in data set [1] and 100% in data set [6]. Further, the IC50 in data set [2] is 490 nM; in data set [4], 380 nM; in data set [7], 390 nM. Also, the viability at 50 µM in data set [3] amounted to 70%; in data set [5], 68%.

In the case of `CN(C)C1C(c2ccccc2)S(=O)(=O)C1C1CS(=O)(=O)C1c1ccccc1` (configuration not stated), the viability at 10 µM in data set [1] turned out to be 68%; in data set [6], 39%. The viability at 50 µM in data set [3] stood at 5%; in data set [5], 19%.

`Cc1nn(C(=O)Cc2ccccc2)c2c1C(c1ccc(O)cc1)SC(=N)N2` (configuration not stated): the viability at 10 µM worked out at 96% in data set [1] and 100% in data set [6]. In data set [2], the IC50 stood at 2070 nM. The viability at 50 µM in data set [3] was found to be 55%; in data set [5], 63%.

Regarding `CN1CCc2ccccc2C1Cc1cc(OCc2ccccc2)ccc1N` (configuration not stated), the figures for the viability at 10 µM in data set [1] and in data set [6] were 74% and 82%, respectively. Besides, the results for the viability at 50 µM in data set [3] and in data set [5] were 6% and 16%, respectively.

For the compound `CN/N=C(\C)C(CN1CCCCC1)C(C1=C(O)c2ccccc2OC1)c1ccccc1` (configuration not stated), the viability at 10 µM in data set [1] and in data set [6] was 100% in each case. Besides, in data set [2], the IC50 turned out to be 1080 nM. Besides, the viability at 50 µM in data set [3] was 97%; in data set [5], 75%.

`COc1cc(C2CNCc3cc(OC)c(O)cc32)ccc1O` (configuration not stated): the viability at 10 µM in data set [1] is 76%; in data set [6], 100%. For the same compound, the values for the IC50 in data set [2] and in data set [4] were 610 nM and 840 nM, respectively. The viability at 50 µM in data set [3] was 73%; in data set [5] it was 90%.

Take `CCC1=C(CC2NCCc3ccccc32)CC2c3cc(OC)c(OC)cc3CCN2C1` (configuration not stated): the viability at 10 µM in data set [1] was 31%; in data set [6], 46%. In addition, the results for the viability at 50 µM in data set [3] and in data set [5] were 5% and 16%, respectively.

In the case of `COc1ccc(Nc2ccnc3cc(Cl)ccc23)cc1CNCC(C)C`, the viability at 10 µM in data set [1] is 26%; in data set [6] it was 12%. Besides, the viability at 50 µM in data set [3] came to 6%; in data set [5] it was 17%.

Consider `CCN(Cc1ccccc1)C(=O)C1CCN(Cc2c[nH]c3ccccc23)CC1`, for which the viability at 10 µM in data set [1] turned out to be 48%; in data set [6], 56%. The IC50 in data set [2] is 620 nM. The viability at 50 µM is 13% in data set [3] and 21% in data set [5].

Regarding `CC1CN(CCOC(=O)C(c2ccccc2)C2C=CCCC2)C(C)(C)C1` (configuration not stated), the viability at 10 µM in data set [1] stood at 93%; in data set [6], 84%. Besides, the viability at 50 µM in data set [3] turned out to be 61%; in data set [5], 36%.

In the case of `Fc1ccc(N/C2=N/CC/N=C(/Nc3ccc(F)cc3)SS2)cc1`, the viability at 10 µM in data set [1] was determined as 92%; in data set [6], 100%. Further, the values for the IC50 in data set [2], in data set [4] and in data set [7] were 190 nM, 320 nM and 320 nM, respectively. For the same compound, the viability at 50 µM in data set [3] is 58%; in data set [5], 57%.

With `COc1ccc(CCN(C)CCCC(C#N)(c2ccc(OC)c(OC)c2)C(C)C)cc1OC` (configuration not stated) [VERAPAMIL], the IC50 in data set [4] amounted to 200 nM.

Take `CC1(CN2CCCC2)CCC(NC(=O)C(c2ccccc2)c2ccccc2)C(C)(C)O1` (configuration not stated): the viability at 10 µM in data set [1] is 100%; in data set [6], 88%. In addition, the IC50 in data set [2] was 140 nM; in data set [4] it was 1730 nM. Further, the viability at 50 µM in data set [3] was 51%; in data set [5], 54%.

Take `C[N+]1(CCOC(=O)C(c2ccccc2)C2C=CCC2)CCCC12CCCCC2` (configuration not stated): the viability at 10 µM in data set [1] worked out at 89%; in data set [6] it was 100%. Besides, the concentration for half-maximal inhibition (IC50) in data set [2] was found to be 1550 nM. Besides, the viability at 50 µM in data set [3] was 75%; in data set [5] it was 81%.

Take `O=C1CN(CCN2CC(=O)N(Cc3ccccc3)C(=O)C2)CC(=O)N1Cc1ccccc1`: the viability at 10 µM in data set [1] amounted to 76%; in data set [6], 100%. For the same compound, the results for the IC50 in data set [2] and in data set [4] were 240 nM and 850 nM, respectively. In addition, the viability at 50 µM in data set [3] turned out to be 69%; in data set [5], 82%.

On to `CCC(C)N1CN(c2ccccc2)C2(CCN(CC3COc4ccccc4O3)CC2)C1=O` (configuration not stated), for which the viability at 10 µM was 93% in data set [1] and 100% in data set [6]. In addition, the viability at 50 µM in data set [3] was 11%; in data set [5] it was 70%.

As to `Cc1ccc(N2CCN(CCCOC(=O)Nc3cccc4ccccc34)CC2)cc1`, the viability at 10 µM in data set [1] amounted to 93%; in data set [6], 89%. Also, the IC50 in data set [2] is 830 nM. For the same compound, the values for the viability at 50 µM in data set [3] and in data set [5] were 70% and 89%, respectively.

`O=C1NCN(c2ccccc2)C12CCN(CCCS(=O)(=O)c1ccccc1)CC2`: the results for the viability at 10 µM in data set [1] and in data set [6] were 77% and 100%, respectively. Also, the figures for the IC50 in data set [2] and in data set [4] were 240 nM and 1140 nM, respectively. In addition, the viability at 50 µM in data set [3] was 80%; in data set [5] it was 100%.

With `COc1cc2c(cc1OC)C(c1ccc(O)c(O)c1)CNC2` (configuration not stated), the values for the viability at 10 µM in data set [1] and in data set [6] were 93% and 100%, respectively. The IC50 in data set [2] came to 800 nM. Moreover, the viability at 50 µM in data set [3] and in data set [5] was 97% throughout.

With `CC1(C)CCN(CCOC(=O)C(c2ccccc2)C2C=CCCC2)C1` (configuration not stated), the results for the viability at 10 µM in data set [1] and in data set [6] were 98% and 100%, respectively. Also, the IC50 in data set [2] was 550 nM. Moreover, the viability at 50 µM stood at 53% in data set [3] and 59% in data set [5].

In the case of `COc1cc(C2CNCc3cc(O)c(OC)cc32)ccc1O` (configuration not stated), the viability at 10 µM in data set [1] was determined as 75%; in data set [6], 100%. Further, in data set [2], the IC50 stood at 830 nM. Further, the viability at 50 µM in data set [3] was 80%; in data set [5] it was 100%.

On to `C=CCN1CC[C@]23c4c5ccc(O)c4O[C@H]2C(=O)CC[C@@]3(O)[C@H]1C5` [NALOXONE], for which the viability at 10 µM in data set [1] came out at 74%; in data set [6], 100%. The IC50 was determined as 360 nM in data set [2] and 850 nM in data set [4]. Also, the viability at 50 µM stood at 67% in data set [3] and 100% in data set [5].

`ClCCNCc1cccc(Nc2ccnc3cc(Cl)ccc23)c1`: the viability at 10 µM was 86% in data set [1] and 96% in data set [6]. For the same compound, the viability at 50 µM in data set [3] was found to be 15%; in data set [5] it was 48%.

With `COc1ccc(C2NC(C(=O)O)Cc3c2[nH]c2ccccc32)cc1OC` (configuration not stated), the viability at 10 µM in data set [1] was 89%; in data set [6], 92%. The IC50 in data set [2] turned out to be 1180 nM. Moreover, the figures for the viability at 50 µM in data set [3] and in data set [5] were 92% and 100%, respectively.

As to `CCN(CC)CCC(=O)NC1c2ccc(Cl)cc2Oc2c(C)cccc21` (configuration not stated), the viability at 10 µM in data set [1] and in data set [6] was 100% each time. Also, the viability at 50 µM was found to be 9% in data set [3] and 13% in data set [5].

`CC1CN(CCOC(=O)C(c2ccccc2)C2C=CCCC2)CC1C` (configuration not stated): the viability at 10 µM in data set [1] was determined as 89%; in data set [6], 100%. In addition, the IC50 in data set [2] worked out at 2120 nM. In addition, the figures for the viability at 50 µM in data set [3] and in data set [5] were 74% and 100%, respectively.

As for `NC(c1ccc2c(c1)OCO2)C(O)c1ccc2c(c1)OCO2` (configuration not stated), the viability at 10 µM came out at 74% in data set [1] and 100% in data set [6]. Besides, in data set [2], the IC50 was 2520 nM. Further, the results for the viability at 50 µM in data set [3] and in data set [5] were 72% and 82%, respectively.

Turning to `Cc1ccc2c(c1)C(NC(Cc1ccccc1)C(=O)O)C(Cl)C(=O)O2` (configuration not stated), the values for the viability at 10 µM in data set [1] and in data set [6] were 75% and 94%, respectively. The IC50 in data set [2] stood at 850 nM. The viability at 50 µM in data set [3] came to 74%; in data set [5] it was 100%.

Source of the values: ChEMBL document CHEMBL3769369, “Ligand-based modeling of diverse aryalkylamines yields new potent P-glycoprotein inhibitors” (Eur J Med Chem, 2016).
